# Source: patent US20230117324A1, “OXAZINE MONOACYLGLYCEROL LIPASE (MAGL) INHIBITORS” (Hoffmann-La Roche Inc., priority 2018, published 2023)
# Biological target: T1, MAGL (Homo sapiens, UniProt Q99685)
# T1 sequence (Q99685 1-303): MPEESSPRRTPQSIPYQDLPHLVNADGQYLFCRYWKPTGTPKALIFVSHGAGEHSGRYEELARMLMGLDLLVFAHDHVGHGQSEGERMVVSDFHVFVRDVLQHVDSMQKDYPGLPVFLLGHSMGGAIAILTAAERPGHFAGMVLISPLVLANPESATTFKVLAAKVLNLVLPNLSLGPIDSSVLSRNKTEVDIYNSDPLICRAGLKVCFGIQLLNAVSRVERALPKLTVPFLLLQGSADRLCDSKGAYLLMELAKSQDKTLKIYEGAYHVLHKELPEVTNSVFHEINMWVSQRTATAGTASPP
# Assay: MAGL inhibition, 2-AG assay (hydrolysis of 2-arachidonoylglycerol, arachidonic acid by mass spectrometry)
# Type: biochemical
# Conditions: 2-AG assay (footnote [b])
# Method in brief: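 Human MAGL […] was preincubated 15 min at RT with compound ([…], 3-fold steps) in 50 mM Tris, 1 mM EDTA, 0.01% Tween. 2-AG (8 μM) was then added for 30 min at RT. Arachidonic acid was quantified by RapidFire SPE–triple quadrupole MS in negative ESI as its ratio to a d8-arachidonic acid standard.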
row,Compound,IC50 [nM]
1,"O=C1CO[C@H]2CCN(C(=O)N3CCC(c4ccnc5c4CCCC5)CC3)C[C@H]2N1 [Example 107, (4aR,8aS)-6-(4-(5,6,7,8-Tetrahydroquinolin-4-yl)piperidine-1-carbonyl)hexahydro-2H-pyrido[4,3-b][1,4]oxazin-3(4H)-one]",576
2,"CC(C)(C)OC(=O)NCCOCCC(=O)NCCOc1cccc(C(c2ccccc2)C2CCN(C(=O)N3CC[C@@H]4OCC(=O)N[C@@H]4C3)CC2)c1 (stereo partly drawn) [Example 255, tert-Butyl N-[2-[3-[2-[3-[[1-[(4aR,8aS)-3-oxo-4,4a,5,7,8,8a-hexahydropyrido[4,3-b][1,4]oxazine-6-carbonyl]-4-piperidyl]-phenyl-methyl]phenoxy]ethylamino]-3-oxo-propoxy]ethyl]carbamate]",2
3,"CC(C)(C)c1ccc(C2CN(C(=O)N3CC[C@@H]4OCC(=O)N[C@@H]4C3)C2)cc1 [Example 140, (4aR,8aS)-6-(3-(4-(tert-Butyl)phenyl)azetidine-1-carbonyl)hexahydro-2H-pyrido[4,3-b][1,4]oxazin-3(4H)-one]",0.6
4,"CC(Oc1ccc(C(F)(F)F)cc1F)C1CN(C(=O)N2CC[C@@H]3OCC(=O)N[C@@H]3C2)C1 (single isomer, unassigned) [Example 97, (4aR,8aS)-6-(3-((S or R)-1-(2-Fluoro-4-(trifluoromethyl)phenoxy)ethyl)azetidine-1-carbonyl)hexahydro-2H-pyrido[4,3-b][1,4]oxazin-3(4H)-one]",16
5,"O=C1CO[C@H]2CCN(C(=O)N3CC(c4ccc(-c5ccccc5C(F)F)cc4)C3)C[C@H]2N1 [Example 142, (4aR,8aS)-6-[3-[4-[2-(Difluoromethyl)phenyl]phenyl]azetidine-1-carbonyl]-4,4a,5,7,8,8a-hexahydropyrido[4,3-b][1,4]oxazin-3-one]",0.1
6,"O=C1CO[C@H]2CCN(C(=O)N3CCN(C(c4ccc(F)cc4F)C(F)(F)F)CC3)C[C@H]2N1 (stereo partly drawn) [Example 53, (4aR,8aS)-6-(4-(1-(2,4-Difluorophenyl)-2,2,2-trifluoroethyl)piperazine-1-carbonyl)hexahydro-2H-pyrido[4,3-b][1,4]oxazin-3(4H)-one]",416
7,"COc1ccc(C(c2cccnc2)C2CCN(C(=O)N3CC[C@@H]4OCC(=O)N[C@@H]4C3)CC2)cc1OC (single isomer, unassigned) [Example 135, (4aR,8aS)-6-[4-[(R or S)-(3,4-Dimethoxyphenyl)-(3-pyridyl)methyl]piperidine-1-carbonyl]-4,4a,5,7,8,8a-hexahydropyrido[4,3-b][1,4]oxazin-3-one]",7
8,"O=C1CO[C@H]2CCN(C(=O)N3CC(c4ccc(N5CCCC5C(F)(F)F)cn4)C3)C[C@H]2N1 (stereo partly drawn) [Example 207, (4aR,8aS)-6-(3-(5-(2-(Trifluoromethyl)pyrrolidin-1-yl)pyridin-2-yl)azetidine-1-carbonyl)hexahydro-2H-pyrido[4,3-b][1,4]oxazin-3(4H)-one]",6
9,"CC1CN(c2ccc(C3CN(C(=O)N4CC[C@@H]5OCC(=O)N[C@@H]5C4)C3)cc2)C1 [Example 151, (4aR,8aS)-6-(3-(4-(3-Methylazetidin-1-yl)phenyl)azetidine-1-carbonyl)hexahydro-2H-pyrido[4,3-b][1,4]oxazin-3(4H)-one]",5
10,"CC(C)(c1ccc(C2CN(C(=O)N3CC[C@@H]4OCC(=O)N[C@@H]4C3)C2)cc1)C(F)(F)F [Example 245, (4aR,8aS)-6-[3-[4-(2,2,2-Trifluoro-1,1-dimethyl-ethyl)phenyl]azetidine-1-carbonyl]-4,4a,5,7,8,8a-hexahydropyrido[4,3-b][1,4]oxazin-3-one]",0.4
11,"Cc1ccc(C(c2ccc(F)cc2)C2CCN(C(=O)N3CC[C@@H]4OCC(=O)N[C@@H]4C3)CC2)cc1 (single isomer, unassigned) [Example 69, (4aR,8aS)-6-[4-[(S or R)-(4-Fluorophenyl)-(4-methylphenyl)methyl]piperidine-1-carbonyl]-4,4a,5,7,8,8a-hexahydropyrido[4,3-b][1,4]oxazin-3-one]",0.1

# Further compounds by falling IC50, results first:
row,IC50 [nM],Compound
1,261,"CS(=O)(=O)c1cccc(C(c2ccccn2)C2CCN(C(=O)N3CC[C@@H]4OCC(=O)N[C@@H]4C3)CC2)c1 (single isomer, unassigned) [Example 190, (4aR,8aS)-6-[4-[(S or R)-(3-methylsulfonylphenyl)-(2-pyridyl)methyl]piperidine-1-carbonyl]-4,4a,5,7,8,8a-hexahydropyrido[4,3-b][1,4]oxazin-3-one]"
2,156,"O=C1CO[C@H]2CCN(C(=O)N3CCC(c4cc(Cl)cc(OCC(F)(F)F)c4)C3)C[C@H]2N1 (single isomer, unassigned) [Example 238, (4aR,8aS)-6-((R or S)-3-(3-Chloro-5-(2,2,2-trifluoroethoxy)phenyl)pyrrolidine-1-carbonyl)hexahydro-2H-pyrido[4,3-b][1,4]oxazin-3(4H)-one]"
3,131,"CS(=O)(=O)c1cccc(C(c2ccncc2)C2CCN(C(=O)N3CC[C@@H]4OCC(=O)N[C@@H]4C3)CC2)c1 (single isomer, unassigned) [Example 178, (4aR,8aS)-6-[4-[(S or R)-(3-methylsulfonylphenyl)-(4-pyridyl)methyl]piperidine-1-carbonyl]-4,4a,5,7,8,8a-hexahydropyrido[4,3-b][1,4]oxazin-3-one]"
4,82,"O=C1CO[C@H]2CCN(C(=O)N3CCC(c4cccc(Br)c4)C3)C[C@H]2N1 (stereo partly drawn) [Example 164, (4aR,8aS)-6-(3-(3-Bromophenyl)pyrrolidine-1-carbonyl)hexahydro-2H-pyrido[4,3-b][1,4]oxazin-3(4H)-one]"
5,20,"CC(Oc1ccc(C(F)(F)F)cc1)C1CN(C(=O)N2CC[C@@H]3OCC(=O)N[C@@H]3C2)C1 (stereo partly drawn) [Example 92, (4aR,8aS)-6-(3-(1-(4-(Trifluoromethyl)phenoxy)ethyl)azetidine-1-carbonyl)hexahydro-2H-pyrido[4,3-b][1,4]oxazin-3(4H)-one]"
6,19,"O=C1CO[C@H]2CCN(C(=O)N3CC(c4ccc(N5CC(F)(F)C5)c(Cl)c4)C3)C[C@H]2N1 [Example 226, (4aR,8aS)-6-(3-(3-Chloro-4-(3,3-difluoroazetidin-1-yl)phenyl)azetidine-1-carbonyl)hexahydro-2H-pyrido[4,3-b][1,4]oxazin-3(4H)-one]"
7,11,"O=C1CO[C@H]2CCN(C(=O)N3CC(c4ccc(OC(F)(F)F)c(Cl)c4)C3)C[C@H]2N1 [Example 211, (4aR,8aS)-6-(3-(3-Chloro-4-(trifluoromethoxy)phenyl)azetidine-1-carbonyl)hexahydro-2H-pyrido[4,3-b][1,4]oxazin-3(4H)-one]"
8,6,"O=C1CO[C@H]2CCN(C(=O)N3CC(c4ccc(CCCF)cc4)C3)C[C@H]2N1 [Example 247, (4aR,8aS)-6-[3-[4-(3-Fluoropropyl)phenyl]azetidine-1-carbonyl]-4,4a,5,7,8,8a-hexahydropyrido[4,3-b][1,4]oxazin-3-one]"
9,4,"O=C1CO[C@H]2CCN(C(=O)N3CCC(C(c4ccccc4)c4ccc(OCCF)cc4)CC3)C[C@H]2N1 (single isomer, unassigned) [Example 70, (4aR,8aS)-6-[4-[(R or S)-[4-(2-Fluoroethoxy)phenyl]-phenylmethyl]piperidine-1-carbonyl]-4,4a,5,7,8,8a-hexahydropyrido[4,3-b][1,4]oxazin-3-one]"
10,3,"O=C1CO[C@H]2CCN(C(=O)N3CC(c4ccc(N5CC(OCC6CC6)C5)cc4)C3)C[C@H]2N1 [Example 212, (4aR,8aS)-6-[3-[4-[3-(Cyclopropylmethoxy)azetidin-1-yl]phenyl]azetidine-1-carbonyl]-4,4a,5,7,8,8a-hexahydropyrido[4,3-b][1,4]oxazin-3-one]"
11,3,"CC(c1ccc(C(F)(F)F)cc1)C1CCN(C(=O)N2CC[C@@H]3OCC(=O)N[C@@H]3C2)CC1 (single isomer, unassigned) [Example 46, (4aR,8aS)-6-(4-((R or S)-1-(4-(Trifluoromethyl)phenyl)ethyl)piperidine-1-carbonyl)hexahydro-2H-pyrido[4,3-b][1,4]oxazin-3(4H)-one]"
12,2,"COc1cc(C2CN(C(=O)N3CC[C@@H]4OCC(=O)N[C@@H]4C3)C2)ccc1C(C)(C)C [Example 240, (4aR,8aS)-6-(3-(4-(tert-Butyl)-3-methoxyphenyl)azetidine-1-carbonyl)hexahydro-2H-pyrido[4,3-b][1,4]oxazin-3(4H)-one]"
13,2,"O=C1CO[C@H]2CCN(C(=O)N3CC(c4ccc(N5CC6CC6C5)cc4)C3)C[C@H]2N1 (stereo partly drawn) [Example 170, (4aR,8aS)-6-(3-(4-(3-Azabicyclo[3.1.0]hexan-3-yl)phenyl)azetidine-1-carbonyl)hexahydro-2H-pyrido[4,3-b][1,4]oxazin-3(4H)-one]"
14,0.2,"COc1cccc(C(c2ccccc2)C2CCN(C(=O)N3CC[C@@H]4OCC(=O)N[C@@H]4C3)CC2)c1 (single isomer, unassigned) [Example 64, (4aR,8aS)-6-(4-((S or R)-(3-Methoxyphenyl)(phenyl)methyl)piperidine-1-carbonyl)hexahydro-2H-pyrido[4,3-b][1,4]oxazin-3(4H)-one]"
15,0.1,"N#Cc1cc(Cl)ccc1-c1ccc(C2CN(C(=O)N3CC[C@@H]4OCC(=O)N[C@@H]4C3)C2)cc1 [Example 159, 2-[4-[1-[(4aR,8aS)-3-Oxo-4,4a,5,7,8,8a-hexahydropyrido[4,3-b][1,4]oxazine-6-carbonyl]azetidin-3-yl]phenyl]-5-chloro-benzonitrile]"
